Test results: patent publication US20200399238A1, “THERAPEUTIC AURONES” (MIDDLE TENNESSEE STATE UNIVERSITY, priority 2016, published 2020)
Where two headings read alike, the source gives them in different places.

Columns and labels:
TNFα = assay: Cytokine response by ELISA, TNFα; assay type: cell-based, human; conditions: for effect on TNFα expression: LPS-stimulated THP-1, ELISA
Procedure: (§1) Dexamethasone is a synthetic glucocorticoid that suppresses LPS-induced pro-inflammatory cytokine expression and was used as a control (Abraham, Lawrence et al. 2006). Supernatants were collected for human cytokine ELISAs and the manufacturer's protocol was followed to assess the cytokine response. Cells remaining after the supernatant collection were tested for relative viability by Alamar Blue cytotoxicity assay as previously described.

[1] = tested on: PMA-differentiated THP-1 cells; assay: Alamar Blue cell viability assay, THP-1; assay type: cell-based, human; conditions: THP-1 cells, 4 h with LPS, mean ± SD
Procedure: THP-1 cells were maintained in RPMI 1640 medium supplemented with 10% heat-inactivated FBS and 1% penicillin/streptomycin (complete culture medium) at 37° C. with 5% CO2 supplemented. Cell concentrations were adjusted to desired concentrations for each experiment by centrifugation at 500×g for 5 min and resuspended in complete culture medium with 100 nM of PMA. Cell concentration was adjusted to 5×10^5 cells/ml for all assays with the exception of 2.5×10^5 cells/ml were used for NF-κB nuclear translocation assay. Cells were seeded onto 96-, 24-, or 12-well plates and incubated for 48 to 72 h to allow for differentiation. Cells were washed with serum-free RPMI 1640 medium before each experiment to remove undifferentiated cells. […] Cells were seeded into tissue culture plates at 10% confluence and grown to 80% confluence within 72 h. For live cell microscopy, 1×10^5 cells/ml were seeded into 35 mm glass-bottom (MatTek) dishes 24 h prior to imaging. For luciferase assays, 1.2×10^5 cells/well were seeded into 24-well tissue culture-treated plates.
Following treatment, the relative cell viability was measured by Alamar Blue assay. For Alamar Blue assays, supernatants were replaced with culture medium containing 1× Alamar Blue reagent and incubated overnight. Cell viability was assessed by measuring relative fluorescent units (RFU) on the SpectraMax M2e microplate reader (Molecular Devices Inc., Sunnyvale, Calif., USA) at Ex 560 nm and Em 590 nm. The results were expressed as a percentage relative to LPS alone control cells. The effects of the vehicle control, DMSO, on cell viability were also assessed.
as §1

[2] = tested on: C. albicans (ATCC strain 90028); assay: Antifungal microdilution broth assay (PrestoBlue), C. albicans; assay type: cell-based, Candida albicans; conditions: Candida albicans, ATCC90028, across C. albicans, C. glabrata, and C. tropicalis; read-out: IC50 values against Candida species
Summary of the method: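 Inoculum of 1.5×10^3 cells/mL in RPMI-MOPS (0.165 M MOPS, pH 7.0), exposed to aurones for 24 h at 35 °C. Growth read by PrestoBlue (10% final) fluorescence at ex 560/em 590 nm.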

C. gattii strains = assay: CLSI micro-dilution MIC, C. gattii strains; assay type: cell-based; conditions: Cryptococcus gattii
Procedure: (§2) The A27-M2 CLSI standard micro-dilution method was used to screen an aurone library (MTSU Department of Chemistry) for inhibition of Cryptococcus neoformans (Cn). Each aurone was screened in triplicate. […] Toxicity assays were conducted on human THP1 macrophages and L6 rat fibroblasts.
(§3) The inhibition of Cn strains and C. gattii strains by Aurone 9051 (also referred to as “Aurone X”) was characterized in different medias (including RPMI 1640 (Standard), RPMI 1640+MOPS, Asparagine media, minimal media, or yeast extract peptone dextrose (YPD) media), against other serotypes and strains, and at different cell concentrations. Synergy of the compounds with current drugs was characterized, and a growth curve experiment was conducted.

[3] = tested on: Cryptococcus neoformans (Cn); assay: CLSI micro-dilution inhibition / MIC, Cryptococcus neoformans; assay type: cell-based
Procedure: C. neoformans (strain 1199s) was prepared following CLSI guidelines for the organism (CLSI, Reference Method for Broth Dilution Antifungal Susceptibility Testing of Yeasts, Approved Standard-Third. Edition, Clinical Laboratory Standards Institute, Wayne, Pa., 2008).
as §2, §3

[4] = tested on: rat skeletal muscle cell line, L6; assay: cells; assay type: cell-based; conditions: rat, 71.5 h
p65 (NF-κB) = assay: Indirect immunofluorescence for NF-κB nuclear translocation, THP-1; assay type: cell-based, human; conditions: dose of 10 μM; THP-1, LPS 30 min
From the text: Bay 11-7082 is a compound that inhibits LPS-induced activation of IKKα/β, thereby suppressing downstream IκBα phosphorylation/degradation and p65 nuclear translocation and was used as a positive control (Catalan, Fernandez-Castillejo et al. 2012). Treated cells were fixed, permeabilized, blocked, and stained with p65 (NF-κB) primary antibody, Dylight 488 conjugated secondary antibody, and Hoechst 33342 dye, sequentially. The Hoechst and DyLight fluorophores detect changes in nuclear morphology (blue fluorescence) and NF-κB distribution (green fluorescence), respectively. Nuclear Translocation Bioapplication software on the Arrayscan VTI reader was used for image acquisition and data analysis (Thermo Fisher Scientific, Waltham, Mass., USA). For each well, at least 400 cells were automatically acquired and analyzed. The translocation index was calculated by measuring the average intensity difference of NF-κB between the identified cytoplasmic region and nuclear region.

[5] = LPS-stimulated THP-1 cells, 20 and 40 μM (one cell for all concentrations)
[6] = Homo sapiens, LPS-stimulated THP-1 cells, mean ± SD, read-out: Average % TNF-α Inhibition
[7] = LPS-stimulated THP-1 cells, 20 μM, mean ± SD

COc1cccc(/C=C2\Oc3ccccc3C2=O)c1O [aurone 8, (Z)-2-(2-hydroxy-3-methoxybenzylidene)benzofuran-3(2H)-one]
effect on TNFα expression (TNFα): lack of activity
Average % TNF-α Inhibition (TNFα; [5]): No Inhibitions
Average % Viability (4 h with LPS) ([1]; 20 μM): 101.3 ± 2.6%

O=C1/C(=C/c2cccc(O)c2)Oc2ccccc21 [Aurone 5, (Z)-2-(3-hydroxybenzylidene)benzofuran-3(2H)-one]
Average % TNF-α Inhibition (TNFα; LPS-stimulated THP-1 cells, 20, 25 and 40 μM (one cell for all concentrations)): No Inhibitions
Average % Viability (4 h with LPS) ([1]; 20 μM): 94.6 ± 1.2%
Average % Viability (4 h with LPS) ([1]; 25 μM): 92.9 ± 1.4%
Average % Viability (4 h with LPS) ([1]; 40 μM): 90.9 ± 0.6%

COc1ccc(/C=C2\Oc3ccccc3C2=O)cc1O [Aurone 9, (Z)-2-(3-hydroxy-4-methoxybenzylidene)benzofuran-3(2H)-one]
inhibition at 40 µM (TNFα; [6]): 14.9 ± 7.2%

COc1cc(/C=C2\Oc3ccccc3C2=O)ccc1O [aurone 7, (Z)-2-(4-hydroxy-3-methoxybenzylidene)benzofuran-3(2H)-one]
effect on TNFα expression (TNFα): weaker activity
Average % TNF-α Inhibition (TNFα; [7]): No Inhibition
Average % Viability (4 h with LPS) ([1]; 20 μM): 97.0 ± 0.3%

O=C1/C(=C/c2ccccn2)Oc2ccccc21 [Aurone 9051]
IC50 [2]: 10 to 18 µM
MIC (C. gattii strains; read-out: MIC, C. gattii strain R265): 25 µg/mL
MIC (C. gattii strains; read-out: MIC, C. gattii strain R272): 25 µg/mL
MIC ([3]; 10^3 cells, read-out: MIC, Cn): 25 µg/mL
MIC ([3]; 10^4 cells, read-out: MIC, Cn): 50 µg/mL
MIC ([3]; 10^5 cells, read-out: MIC, Cn): 100 µg/mL
MIC ([3]; C. neoformans 24067 (lab), serotype D, RPMI + MOPS, inoculum 2 × 10^3 CFU/ml): 112 µM
MIC ([3]; C. neoformans B18 (clinical), serotype A, RPMI + MOPS, inoculum 2 × 10^3 CFU/ml): 112 µM
MIC ([3]; C. neoformans B45 (clinical), serotype A, RPMI + MOPS, inoculum 2 × 10^3 CFU/ml): 112 µM
MIC ([3]; C. neoformans B58 (clinical), serotype A, RPMI + MOPS, inoculum 2 × 10^3 CFU/ml, read-out: MIC): 56 µM
MIC ([3]; C. neoformans B3501 (lab), serotype D, RPMI + MOPS, inoculum 2 × 10^3 CFU/ml): 112 µM
MIC ([3]; C. neoformans H99S, serotype A, Asparagine media, inoculum 2 × 10^3 CFU/ml): 112 µM
MIC ([3]; C. neoformans H99S, serotype A, Minimal media, inoculum 2 × 10^3 CFU/ml): > 4480 µM
MIC ([3]; C. neoformans H99S, serotype A, RPMI + MOPS, inoculum 2 × 10^3 CFU/ml): 112 µM
MIC ([3]; C. neoformans H99S, serotype A, RPMI + MOPS, inoculum 2 × 10^4 CFU/ml): 224 µM
MIC ([3]; C. neoformans H99S, serotype A, RPMI + MOPS, inoculum 2 × 10^5 CFU/ml): 448 µM
MIC ([3]; C. neoformans H99S, serotype A, YPD media, inoculum 2 × 10^3 CFU/ml): > 896 µM
MIC ([3]; C. neoformans JEC21 (lab), serotype D, RPMI + MOPS, inoculum 2 × 10^3 CFU/ml): 112 µM
MIC ([3]; in RPMI+MOPS, read-out: MIC, Cn): 12.5 µg/mL
MIC ([3]; in YPD, read-out: MIC, Cn): > 200 µg/mL
MIC ([3]; in asparagine media, read-out: MIC, Cn): 25 µg/mL
MIC ([3]; running text b175, read-out: MIC against Cryptococcus neoformans): 110 µM
toxicity to L6 rat fibroblasts [4]: > 100 µM

COc1cc(/C=C2\Oc3ccccc3C2=O)ccc1O [Aurone 7, (Z)-2-(4-hydroxy-3-methoxybenzylidene)benzofuran-3(2H)-one]
inhibition at 40 µM (TNFα; [6]): 10.4 ± 4.7%

O=C1/C(=C/c2ccc(CO)o2)Oc2ccccc21 [Aurone 1]
inhibition at 40 µM (TNFα; [6]): 51.8 ± 13.5%
inhibition at 80 µM (TNFα; Homo sapiens, LPS-stimulated THP-1 cells, 80 μM, mean ± SD, read-out: Average % TNF-α Inhibition): 93.8 ± 0.7%

O=C1/C(=C/c2ccccc2O)Oc2ccccc21 [Aurone 4, (Z)-2-(2-hydroxybenzylidene)benzofuran-3(2H)-one]
inhibition at 40 µM (TNFα; [6]): 15.4 ± 5.3%

COc1ccc(/C=C2\Oc3ccccc3C2=O)cc1O [aurone 9, (Z)-2-(3-hydroxy-4-methoxybenzylidene)benzofuran-3(2H)-one]
effect on TNFα expression (TNFα): weaker activity
Average % TNF-α Inhibition (TNFα; [7]): No Inhibition
Average % Viability (4 h with LPS) ([1]; 20 μM): 101.8 ± 2.1%
melting point: 186 to 187 °C

Cc1ccc(S(=O)(=O)C=CC#N)cc1 [Bay 11-7082, 3-(4-methylphenylsulfonyl)-2-propenenitrile, reference compound]
cytoplasmic-to-nuclear translocation of p65 (p65 (NF-κB)): blocked p65 translocation

Cc1ccc(/C=C2\Oc3ccccc3C2=O)o1 [compound 2]
effect on TNFα expression (TNFα): complete loss of activity
Average % TNF-α Inhibition (TNFα; LPS-stimulated THP-1 cells, 25, 50 and 100 μM (one cell for all concentrations)): No Inhibitions
Average % Viability (4 h with LPS) ([1]; 25 μM): 99.4 ± 9.3%
Average % Viability (4 h with LPS) ([1]; 50 μM): 118.3 ± 1.3%
Average % Viability (4 h with LPS) ([1]; 100 μM): 108.9 ± 2.0%

O=C1/C(=C/c2ccc(O)cc2)Oc2ccccc21 [Aurone 6, (Z)-2-(4-hydroxybenzylidene)benzofuran-3(2H)-one]
Average % TNF-α Inhibition (TNFα; [5]): No Inhibitions
Average % Viability (4 h with LPS) ([1]; 20 μM): 99.8 ± 1.5%
Average % Viability (4 h with LPS) ([1]; 40 μM): 98.5 ± 0.1%

O=C1/C(=C/c2ccco2)Oc2ccccc21 [compound 3]
effect on TNFα expression (TNFα): complete loss of activity
Average % TNF-α Inhibition (TNFα; LPS-stimulated THP-1 cells, 12.5, 25 and 50 μM (one cell for all concentrations)): No Inhibitions
Average % Viability (4 h with LPS) ([1]; 12.5 μM): 104.3 ± 2.2%
Average % Viability (4 h with LPS) ([1]; 25 μM): 102.1 ± 0.8%
Average % Viability (4 h with LPS) ([1]; 50 μM): 92.2 ± 0.9%

O=C1/C(=C/c2ccccc2O)Oc2ccccc21 [aurone 4, (Z)-2-(2-hydroxybenzylidene)benzofuran-3(2H)-one]
effect on TNFα expression (TNFα): low activity
Average % TNF-α Inhibition (TNFα; [7]): No Inhibition
Average % Viability (4 h with LPS) ([1]; 20 μM): 99.4 ± 0.5%
